Source: ChEMBL document CHEMBL1131587, “Novel peptidyl phosphorus derivatives as inhibitors of human calpain I” (J Med Chem, 1998)

Biological target: T1, Calpain-1 catalytic subunit (Homo sapiens, UniProt P07384)
T1 sequence (P07384 whole entry): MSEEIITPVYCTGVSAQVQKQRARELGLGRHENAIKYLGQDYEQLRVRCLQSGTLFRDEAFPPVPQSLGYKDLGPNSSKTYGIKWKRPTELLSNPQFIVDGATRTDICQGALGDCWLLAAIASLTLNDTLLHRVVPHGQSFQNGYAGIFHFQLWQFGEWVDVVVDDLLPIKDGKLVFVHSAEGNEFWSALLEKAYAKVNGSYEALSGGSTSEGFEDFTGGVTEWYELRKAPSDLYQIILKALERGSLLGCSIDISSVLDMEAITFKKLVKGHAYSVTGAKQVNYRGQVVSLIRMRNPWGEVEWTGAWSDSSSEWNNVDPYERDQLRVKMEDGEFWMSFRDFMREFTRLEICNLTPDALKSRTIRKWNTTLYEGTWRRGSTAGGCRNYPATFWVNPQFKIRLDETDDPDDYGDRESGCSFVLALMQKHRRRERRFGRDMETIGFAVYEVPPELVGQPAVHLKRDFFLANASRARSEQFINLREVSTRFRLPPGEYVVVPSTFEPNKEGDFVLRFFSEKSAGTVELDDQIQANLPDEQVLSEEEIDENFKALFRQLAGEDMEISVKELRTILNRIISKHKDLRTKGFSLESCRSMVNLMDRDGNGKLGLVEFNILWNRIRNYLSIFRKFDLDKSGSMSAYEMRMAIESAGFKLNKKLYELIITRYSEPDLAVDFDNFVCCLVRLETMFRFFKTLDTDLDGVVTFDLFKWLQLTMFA
Assay: inhibitory activity measured against recombinant human Calpain-I receptor

| Structure (SMILES) | IC50 |
| --- | --- |
| CCCCOP(=O)(OCCCC)C(=O)[C@@H](CC(C)C)NC(=O)C(CC(C)C)NC(=O)OCc1ccccc1 (stereo not given in full) | > 10 µM |
| CCOP(=O)(C(=O)[C@@H](CC(C)C)NC(=O)C(CC(C)C)NC(=O)OCc1ccccc1)c1ccccc1 (stereo not given in full) | 0.37 µM |
| COP(=O)(O)C(=O)[C@@H](CC(C)C)NC(=O)C(CC(C)C)NC(=O)OCc1ccccc1 (stereo not given in full) | 5.2 µM |
| COP(=O)(OC)C(=O)[C@@H](Cc1ccccc1)NC(=O)C(NC(=O)OCc1ccccc1)C(C)C (stereo not given in full) | 7.4 µM |
| COP(=O)(OC)C(=O)[C@@H](CC(C)C)NC(=O)C(CC(C)C)NC(=O)OCc1ccccc1 (stereo not given in full) | 0.43 µM |
| CC(C)CC(NC(=O)OCc1ccccc1)C(=O)N[C@H](CC(C)C)C(=O)P(=O)(c1ccc(Cl)cc1)c1ccc(Cl)cc1 (stereo not given in full) | 0.35 µM |
| CC(C)CC(NC(=O)OCc1ccccc1)C(=O)N[C@H](CC(C)C)C(=O)P(C)(C)=O (stereo not given in full) | > 10 µM |
| CCOC(=O)[C@@H](CC(C)C)NC(=O)C(CC(C)C)NC(=O)OCc1ccccc1 (stereo not given in full) | 0.6 µM |
| CCCCOP(=O)(OCCCC)C(=O)[C@@H](Cc1ccccc1)NC(=O)C(NC(=O)OCc1ccccc1)C(C)C (stereo not given in full) | > 10 µM |
| CC(C)C(NC(=O)OCc1ccccc1)C(=O)N[C@H](Cc1ccccc1)C(=O)P(=O)(OCc1ccccc1)OCc1ccccc1 (stereo not given in full) | 6 µM |
